Columns and labels:
[1] = tested on: primary rat hepatocytes; experiment: Biotransformation in hepatocyte culture by HPLC with ESI-MS/UV; type: in vitro ADME; details: 50 μM; after 20 hours
Method: Cells were cultured for 24 hours in the presence of EGF, alone or in combination with 4-Me2N-BAVAH; culture media were renewed and the expression of p21 was subsequently analyzed at short time intervals (0.5, 1, 6 and 24 hours) (FIG. 18B). In untreated EGF-stimulated hepatocytes, cyclin D1 and p21 proteins were induced 0.5 hour after medium renewal. A maximum was reached 24 hours later, namely after 48 hours of culture. As expected, no cyclin D1 and p21 proteins could be detected in 4-Me2N-BAVAH-treated cells, not even after short exposure periods (FIG. 18B). In addition, we quantified the biotransformation rate of 4-Me2N-BAVAH using high-performance liquid chromatography (HPLC) combined with simultaneous electrospray ionization mass spectrometric (ESI-MS)/UV detection. […] These findings clearly indicate that 4-Me2N-BAVAH interferes with the mitogenic effects of EGF resulting in a failure to induce cyclin D1 and p21 expression.

[2] = tested on: hMSC; experiment: Albumin ELISA, ALB secretion by hMSC; type: cell-based, human; details: for ALB secreted: sequential + 1 μM TSA from day 6
Method: Low-density hMSC (CD45^−, Thy^+) were cultivated at 21.5 10^3 cells cm^2 on 1 mg/ml collagen gel type I matrix in the presence of liver-specific (LSP) cytokines, added either as a cocktail [basal medium supplemented with 10 ng/ml FGF-4 (fibroblast growth factor type 4), 20 ng/ml HGF (hepatic growth factor) (all from R&D), 1×ITS (insulin, transferrin, selenious acid) and 0.05 μM Dex (dexamethasone) (all from Sigma)] or sequentially [basal medium supplemented with 10 ng/ml FGF-4, following basal media supplemented with 20 ng/ml HGF (R&D) and finally basal medium supplemented with 20 ng/ml HGF, 1×ITS and 0.05 μM Dex]. Basal medium consisted of 60% (v/v) DMEM-LG/40% (v/v) MCDB-201 supplemented with 1 mg/ml LA-BSA, 100 IU/ml penicillin, 100 μg/ml streptomycin, 0.1 mM L-ascorbic acid, 4 μg/ml nicotinamide, 27.3 mg/l sodium-pyruvate and 1.623 mM glutamin (all from Sigma). The media were changed every three days.
ALB concentrations secreted into the media were analysed by a competitive enzyme-linked immunosorbent assay (ELISA) as described (Koebe et al. Int J Artif Organs 17: 95-106, 1994). The ALB levels were normalized with respect to the media used.

[3] = Biotransformation by rat liver microsomes; type: in vitro ADME; details: 140 μM TSA, 150 min
Method: (§1) Human liver specimens (n=3) were acquired from organ donors at the Academic Hospital of the VUB in accordance with the regulations of the local Medical Ethical Committee and immediately frozen in liquid nitrogen. While human liver microsomes were prepared from frozen liver tissue, rat livers (n=3) were freshly isolated for immediate microsome preparation. Microsomal 7-ethoxyresorufin-O-deethylase (EROD) [31]was used as a marker enzyme to evaluate the microsomal biotransformation activity before and after storage. Incubations were carried out in a 100 mM sodium potassium phosphate buffer pH 7.4 in the presence of a NADPH-generating system (0.5 mM NADP^+, 10 mM glucose 6-phosphate, 2 U/ml glucose 6-phosphate dehydrogenase and 0.6 mM MgCl2). Microsomes (0.0-2.0 mg microsomal protein/ml) were incubated with 140 μM substrate at 37° C. for 150 min. Boiled microsomes ([…]) served as a control. Biotransformation reactions were initiated by addition of substrate and, at selected time intervals, terminated by dilution with ice-cold acetonitrile (1:2.5).
(§2) After centrifugation (2000 g, 45 min, 4° C.) of the diluted microsomal samples, the clear supernatant was injected onto a HPLC column. Samples from incubations with hepatocytes were thawed on ice and centrifugated (120 g, 2 min). […]

[4] = Biotransformation by human liver microsomes; type: in vitro ADME; details: 140 μM TSA, 150 min
Method: as §1, §2

Structure (SMILES)	metabolites detected in culture [1]	ALB secretion ([2]; cocktail + 1 μM TSA, not significant)	ALB levels ([2]; conditioned medium, sequential + TSA, day 17) [µg/mL]	difference in ALB secretion between cells with and without TSA ([2]; conditioned medium, sequential, TSA day 0 until HGF, day 15) [fold]	ALB secreted ([2]; day 15) [µg/mL]	ALB secreted ([2]; day 17) [µg/mL]	biotransformation in microsome suspensions [3]	biotransformation in microsome suspensions [4]
CN(C)c1ccc(C(=O)NCCCCC(=O)NO)cc1 [4-Me2N-BAVAH, 5-(4-dimethylaminobenzoyl)-aminovaleric acid hydroxamide]	No metabolites of the compound could be detected	–	–	–	–	–	–	–
CC(C=CC(=O)NO)=CC(C)C(=O)c1ccc(N(C)C)cc1 (centres unmarked) [TSA]	–	upregulation	2.26 ± 0.092	2.28	2.019 ± 0.144	3.456 ± 0.08	slow and incomplete biotransformation	slow and incomplete biotransformation

Source: patent US20090130064A1, “DIFFERENTIATION OF STEM CELLS AND STABILIZATION OF PHENOTYPICAL PROPERTIES OF PRIMARY CELLS” (priority 2004, published 2009)
